Laboratory results: US20170211073A1, “ANTISENSE ANTINEOPLASTIC AGENT” (priority 2014, published 2017)

How the values were obtained:
[1] = test system: human large intestine cancer cells HCT116; test: Antitumor effect of YB-1 ASO AmNA into blood, HCT116 subcutaneous tumor; type: in vivo, nude mice
Protocol: (§1) Antitumor effect of administration into blood of YB-1 ASO of AmNA type, of which high safety was confirmed in Example 9 compared with ASO constituted with the conventional BNA, was examined. The human large intestine cancer cells HCT116 were subcutaneously transplanted to the thighs of nude mice. After subcutaneous tumors having a diameter of 6 to 7 mm (average tumor volume, 78 vs. 72 mm^3) were formed, 200 μg/200 μL of YB-1 ASO AmNA was administered (once every two weeks, total 2 times) into the blood from the caudal veins. The diameters of the tumors were measured over time, and tumor volumes calculated in accordance with a calculation formula, (Major axis)×(Minor axis)/2, were compared with those obtained with the control antisense group. The subcutaneous tumors were collected after one week from the second administration (day 28), and weights thereof were compared. In the YB-1 ASO AmNA group, both the tumor diameter and tumor weight were suppressed to about ⅕ of those observed with the control antisense group (FIG. 10, *P<0.05).

[2] = test system: gemcitabine-resistant human pancreatic cancer SUIT2 cells; test: Antitumor effect of YB-1 ASO AmNA into blood, gemcitabine-resistant SUIT2 subcutaneous tumor; type: in vivo, nude mice
Protocol: as §1
A human pancreatic cancer SUIT2 cell strain was prepared by culturing pancreatic cancer cells resistant to the anticancer agent, gemcitabine, for a long period of time in a medium containing gemcitabine at a low concentration (IC50 value, 100 nM for the resistant strain vs. 5 nM for the parent strain). […]

[3] = test system: gemcitabine-resistant pancreatic cancer SUIT2-GR cells; test: Repetitive administration into blood, SUIT2-GR subcutaneous tumor growth; type: in vivo, nude mice; details: 10 mg/kg BW caudal vein once a week over three weeks, days 14 and 21
Protocol: (§2) The tumor diameters were measured over time.

[4] = test system: large intestine cancer HCT116 cells; test: Repetitive administration into blood, HCT116 subcutaneous tumor growth; type: in vivo, nude mice; details: 10 mg/kg BW caudal vein once a week over three weeks, days 14 and 21
Protocol: as §2

[5] = test system: pancreatic cancer cell strain SUIT2; test: Apoptosis induction in SUIT2 by FACS and Western blotting (PARPp85, caspase-3); type: cell-based; details: 20 nM, in vitro
Protocol: In the same manner as that of Example 3, 20 nM of #10AmNA YB-1 antisense was introduced into the cells of the pancreatic cancer cell strain SUIT2 in vitro.

[6] = test system: Lewis lung cancer; test: Lewis lung cancer subcutaneous tumor model; type: in vivo; details: 10 mg/kg BW caudal vein once a week for three weeks; days 14 and 21; vs control antisense group
Protocol: Subcutaneous tumor models of lung cancer, Lewis lung cancer, were created. […] The tumor diameters were measured over time.

[7] = test system: malignant mesothelioma cell strain H226; test: Proliferation of H226 cells; type: cell-based
[8] = test system: YB-1; test: YB-1 expression in SKOV3 by real-time RT-PCR; type: cell-based; details: Lipofectamine RNAiMax
Excerpt: The #10 AmNA YB-1 antisense was introduced into cells of the ovarian cancer cell strain SKOV3 using the reagent Lipofectamine RNAiMax, and expression of YB-1 was examined by real-time RT-PCR.

[9] = test system: ovarian cancer cell strain SKOV3; test: Proliferation of SKOV3 cells; type: cell-based
[10] = test system: ovarian cancer cell strain SKOV3; test: SKOV3-luciferase peritoneum inoculation model; type: in vivo; details: 10 mg/kg BW intraperitoneally once a week for two weeks, vs control group
Protocol: Peritoneum inoculation models of ovarian cancer cell strain SKOV3 stably expressing luciferase were prepared. Then, after 1 week from the transplantation of the cancer cells, 10 mg/kg BW of #10 AmNA YB-1 antisense was intraperitoneally administered once a week for two weeks, and the tumor volume was evaluated over time in terms of the luciferase activity.

[11] = test system: YB-1; test: YB-1 expression in AS44 by real-time RT-PCR; type: cell-based; details: Lipofectamine RNAiMax
Excerpt: The #10 AmNA YB-1 antisense was introduced into cells of the gastric cancer cell strain AS44 using the reagent Lipofectamine RNAiMax, and expression of YB-1 was examined by real-time RT-PCR.

[12] = test system: gastric cancer cell strain AS44-luc; test: AS44-luc peritoneum inoculation model, survival; type: in vivo; details: 10 mg/kg BW intraperitoneally once a week for two weeks, vs control group
Protocol: Peritoneum inoculation models of gastric cancer cell strain AS44-luc stably expressing luciferase were prepared. Then, after 1 week from the transplantation of the cancer cells, 10 mg/kg BW of #10 AmNA YB-1 antisense was intraperitoneally administered once a week for two weeks, and the tumor volume was evaluated over time in terms of the luciferase activity.

[13] = test system: ovarian cancer cell strain SKOV-3; test: Anticancer agent sensitivity enhancement, SKOV-3; type: cell-based; details: antisense 5 nM, 5-FU, gemcitabine
Protocol: The #10 AmNA YB-1 antisense (5 nM) was introduced into cells of the pancreatic cancer cell strain MIA PaCa-2 (FIG. 19A) and ovarian cancer cell strain SKOV-3 (FIG. 19B) using the reagent Lipofectamine RNAiMax, and cell-killing effects of the anticancer agent observed in the presence and absence of the antisense were compared. […] The anticancer agent concentrations that provided equivalent cell-killing effects are shown in blue color (5-FU) or red color (gemcitabine).

[14] = test system: pancreatic cancer cell strain SUIT-2; test: Radiation sensitivity enhancement, SUIT-2; type: cell-based; details: antisense 10 nM
Protocol: The #10 AmNA YB-1 antisense (10 nM) was introduced into cells of the pancreatic cancer cell strain SUIT-2 using the reagent Lipofectamine RNAiMax, and cell-killing effects of X-ray irradiation observed in the presence and absence of the antisense were compared.

[15] = test system: YB-1; test: YB-1 knockdown siRNA vs AmNA-AON, mRNA level (real-time RT-PCR); type: cell-based; details: AsPC-1, MIA PaCa-2, Suit-2; 20 nM; 48 hours
Protocol: (§3) YB-1-siRNA or YB-1 #10AmNA was introduced (final concentration, 20 nM) into cells of the pancreatic cancer cell strains (AsPC-1, MIA PaCa-2, and Suit-2). After 48 hours, RNAs and proteins were extracted, and the YB-1 expression was evaluated by real-time RT-PCR and Western blotting at the mRNA level (A) and protein level (B), respectively. Both the knockdown efficiencies obtained with siRNA and #10 AmNA-AON were high at the mRNA level, and any clear difference was not observed between them. […] The graphs show mean±SD (n=3, *P<0.05).

[16] = test system: YB-1; test: YB-1 knockdown siRNA vs AmNA-AON, protein level (Western blotting); type: cell-based; details: AsPC-1, MIA PaCa-2, Suit-2, 20 nM, 48 hours
Protocol: as §3

[17] = General blood and biochemical examinations, mice with Suit2-GR sc tumor; details: SUIT2-GR and HCT116 models; 10 mg/kg BW once a week over three weeks
Protocol: Subcutaneous tumor models were created by subcutaneously transplanting gemcitabine-resistant pancreatic cancer SUIT2-GR cells and large intestine cancer HCT116 cells to the thighs of nude mice. After tumors having a volume of 50 mm^3 were formed, 10 mg/kg BW of #10AmNA YB-1 antisense was administered from the caudal veins once a week over three weeks. The tumor diameters were measured over time.

TCTcctgcaccCTGg (TCTCCTGCACCCTGG; chemistry not fully specified) [#10AmNA]
tumor diameter as fraction of control antisense group ([1]; 200 μg/200 μL caudal vein, once every two weeks, total 2 times): about ⅕
tumor weight as fraction of control antisense group ([1]; day 28): about ⅕
tumor weight as fraction of control antisense group [2]: about ⅓
tumor diameter as fraction of control antisense group ([2]; 200 μg/200 μL into blood, once every two weeks, total 2 times): about ⅓
subcutaneous tumor-suppressing effect [3]: significant subcutaneous tumor-suppressing effect
subcutaneous tumor-suppressing effect [4]: significant subcutaneous tumor-suppressing effect
induction of apoptosis (FACS; PARPp85, caspase-3) [5]: Induction of apoptosis was observed
increase of the tumor [6]: significantly suppressed
suppression of proliferation [7]: suppression of proliferation
suppression of YB-1 expression [8]: Concentration-dependent suppression
suppression of proliferation [9]: suppression of proliferation
tumor volume (luciferase activity) [10]: significantly suppressed
suppression of YB-1 expression [11]: Concentration-dependent suppression
survival rate (Kaplan-Meier) [12]: significantly increased
cell-killing effects of the anticancer agent in presence of the antisense [13]: Enhancement of the cell-killing effect
cell-killing effects of X-ray irradiation in presence of the antisense [14]: Enhancement of the cell-killing effect
knockdown efficiency at the mRNA level [15]: high
knockdown efficiency at the protein level [16]: clearly higher
safety with the every week administration protocol [17]: any problem was not observed
